Test results reported in patent EP4685153A1 (priority 2023, dated 2024).
Residues, ends and D or L forms follow the SMILES beside them. *: point of attachment. Succinyl(4-O-cholesteryl) = CC(C)CCC[C@@H](C)[C@H]1CC[C@H]2[C@@H]3CC=C4C[C@@H](OC(=O)CCC(=O)*)CC[C@]4(C)[C@H]3CC[C@]12C

Tests used:
[1] = tested on: HIV-1 strain JRFL pseudovirus; conditions: for IC50: strain JRFL pseudovirus
[2] = tested on: HIV-1 strain SG3.1 living virus; conditions: for IC50: strain SG3.1 living virus
[3] = tested on: HIV-1 strain NL4-3 pseudovirus; conditions: for IC50: strain NL4-3 pseudovirus
N44 = N44 (Human immunodeficiency virus type 1 group M subtype B, UniProt P04578); assay: Circular dichroism of lipopeptide complex with target sequence N44; conditions: CD; for Tm value of the mixture with N44: [θ]222, 20-98 °C at 2 °C/min; for α-helix content of the mixture with N44: lipopeptide and N44 each 10 µM in PBS pH 7.2
[4] = tested on: T20-resistant mutant strains (HIV-1 strain NL4-3); conditions: for IC50: T20-resistant mutant strains ( strain NL4-3, 48 h); for inhibitory activity against 12 drug-resistant mutant strains higher than that of the LP-98: versus LP-98
[5] = tested on: representative pandemic HIV-1 strain pseudoviruses; conditions: for IC50: representative pandemic strain pseudoviruses, 48 h; for inhibitory activity against 12 pseudoviruses higher than that of the T20: versus T20
[6] = Circular dichroism of lipopeptide alone; type: physicochemical; conditions: CD, 10 µM in PBS pH 7.2
[7] = tested on: HIV-1 envelope protein (Env); assay: Env-mediated cell-cell fusion inhibition (DSP reporter system); conditions: for IC50: read-out: average IC50 value, membrane fusion of 12 viruses, average over Env of 12 representative pandemic HIV-1 strains; for inhibitory activity against membrane fusions of 12 viruses higher than that of the T20: versus T20
[8] = tested on: replicative HIV-1 strain JR-CSF; conditions: replicative strain JR-CSF, 48 h
[9] = LP-124 versus LP-122, LP-125 versus LP-123

Sequence of N44 (P04578 538-581): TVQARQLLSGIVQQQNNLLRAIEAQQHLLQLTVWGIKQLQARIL

Row | Compound | IC50 [1] [pM] | IC50 [2] [pM] | IC50 [3] [pM] | Tm value of the mixture with N44 (N44) [°C] | α-helix content of the mixture with N44 (N44) [%] | IC50 [4] [pM] | inhibitory activity against 12 drug-resistant mutant strains higher than that of the LP-98 [4] [folds] | IC50 [5] [pM] | inhibitory activity against 12 pseudoviruses higher than that of the T20 [5] [folds] | α-helix content, lipopeptide alone [6] [%] | IC50 [7] [pM] | inhibitory activity against membrane fusions of 12 viruses higher than that of the T20 [7] [folds] | activity increased as compared to its template, JRFL pseudovirus [1, 9] [folds] | activity increased as compared to its template, SG3.1 living virus [2, 9] [folds] | activity increased as compared to its template, NL4-3 pseudovirus [3, 9] | IC50 [8] [pM]
1 | CC[C@H](C)[C@H](NC(=O)[C@H](CCCCN)NC(=O)[C@H](CCCCN)NC(=O)[C@H](CCC(=O)O)NC(=O)[C@H](Cc1c[nH]c2ccccc12)NC(=O)[C@H](CCC(=O)O)NC(=O)[C@H](CCC(=O)O)NC(=O)[C@H](Cc1c[nH]c2ccccc12)NC(=O)[C@@H](NC(C)=O)[C@@H](C)O)C(=O)N[C@@H](CCC(=O)O)C(=O)N[C@@H](CCC(=O)O)C(=O)N[C@@H](CC(C)C)C(=O)N[C@@H](CCC(=O)O)C(=O)N[C@@H](CCCCN)C(=O)N[C@@H](CCCCN)C(=O)N[C@H](C(=O)N[C@@H](CCC(=O)O)C(=O)N[C@@H](CCC(=O)O)C(=O)N[C@@H](CC(C)C)C(=O)N[C@@H](CC(C)C)C(=O)N[C@@H](CCCCN)C(=O)N[C@@H](CCCCN)C(=O)N[C@@H](C)C(=O)N[C@@H](CCC(=O)O)C(=O)N[C@@H](CCC(=O)O)C(=O)N[C@@H](CCC(N)=O)C(=O)N[C@@H](CCC(N)=O)C(=O)N[C@@H](CCCCN)C(=O)N[C@@H](CCCCN)C(=O)N[C@@H](CC(N)=O)C(=O)N[C@@H](CCC(=O)O)C(=O)N[C@@H](C)C(=O)N[C@@H](C)C(=O)N[C@@H](C)C(=O)N[C@@H](CCCCN)C(=O)N[C@@H](CCCCNC(=O)CCC(=O)O[C@H]1CC[C@@]2(C)C(=CC[C@H]3[C@@H]4CC[C@H]([C@H](C)CCCC(C)C)[C@@]4(C)CC[C@@H]32)C1)C(N)=O)[C@@H](C)CC [LP-123] (Ac-TWEEWEKKIEELEKKIEELLKKAEEQQKKNEAAAKK(Succinyl(4-O-cholesteryl))-NH2) | 14.6 | 3.68 | 18.1 | > 98 | 79 | 55.5 | 48 | 27.4 | 732 | 56 | 24 | 466 |  |  |  | 
2 | CC[C@H](C)[C@H](NC(=O)[C@H](CCCCN)NC(=O)[C@H](CCCCN)NC(=O)[C@H](CCC(=O)O)NC(=O)[C@H](Cc1ccc(O)cc1)NC(=O)[C@H](CCC(=O)O)NC(=O)[C@H](CCC(=O)O)NC(=O)[C@H](Cc1ccc(O)cc1)NC(=O)[C@@H](NC(C)=O)[C@@H](C)O)C(=O)N[C@@H](CCC(=O)O)C(=O)N[C@@H](CCC(=O)O)C(=O)N[C@@H](CC(C)C)C(=O)N[C@@H](CCC(=O)O)C(=O)N[C@@H](CCCCN)C(=O)N[C@@H](CCCCN)C(=O)N[C@H](C(=O)N[C@@H](CCC(=O)O)C(=O)N[C@@H](CCC(=O)O)C(=O)N[C@@H](CC(C)C)C(=O)N[C@@H](CC(C)C)C(=O)N[C@@H](CCCCN)C(=O)N[C@@H](CCCCN)C(=O)N[C@@H](C)C(=O)N[C@@H](CCC(=O)O)C(=O)N[C@@H](CCC(=O)O)C(=O)N[C@@H](CCC(N)=O)C(=O)N[C@@H](CCC(N)=O)C(=O)N[C@@H](CCCCN)C(=O)N[C@@H](CCCCN)C(=O)N[C@@H](CC(N)=O)C(=O)N[C@@H](CCC(=O)O)C(=O)N[C@@H](C)C(=O)N[C@@H](C)C(=O)N[C@@H](C)C(=O)N[C@@H](CCCCN)C(=O)N[C@@H](CCCCNC(=O)CCC(=O)O[C@H]1CC[C@@]2(C)C(=CC[C@H]3[C@@H]4CC[C@H]([C@H](C)CCCC(C)C)[C@@]4(C)CC[C@@H]32)C1)C(N)=O)[C@@H](C)CC [LP-125] (Ac-TYEEYEKKIEELEKKIEELLKKAEEQQKKNEAAAKK(Succinyl(4-O-cholesteryl))-NH2) | 5.78 | 1.11 | 3.43 | 91 | 89 | 6.29 | 423 | 4.22 | 4752 | 78 | 11.9 | 942 | ~3 | ~3 | about 5 folds | 
3 | Enfuvirtide |  | 2910 |  |  |  |  |  | 20100 |  |  | 11200 |  |  |  |  | 5600
